Results reported in the supplement of paper PMC11061612.

What was measured:
Carboplatin = compound: C1CC(C1)(C(=O)[O-])C(=O)[O-].N.N.[Pt+2] [Carboplatin]; conditions: max 10 µM
In short: (§1)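 In 1536-well plates, cancer cell lines in 7.5 μl DMEM/F12 or RPMI with 10% FBS spent 24 hours at 37°C and 5% CO2 and were then dosed for 72 hours with final DMSO typically 0.2%. Viability was read by CellTiter-Glo 2.0 luminescence and scaled between blank-well and DMSO-well means. The single-agent IC50 was fitted from dose responses using a logistic curve in a non-linear mixed effects model, and that logistic curve had two parameters.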

AZD5363 = compound: C1CN(CCC1(C(=O)N[C@@H](CCO)C2=CC=C(C=C2)Cl)N)C3=NC=NC4=C3C=CN4 [AZD5363]; conditions: max 10 µM
In short: as §1

AZD1775 = compound: C=CCn1c(=O)c2cnc(Nc3ccc(N4CCN(C)CC4)cc3)nc2n1-c1cccc(C(C)(C)O)n1 [AZD1775]; conditions: max 3 µM
In short: as §1

Trametinib = compound: CC(=O)Nc1cccc(-n2c(=O)n(C3CC3)c(=O)c3c(Nc4ccc(I)cc4F)n(C)c(=O)c(C)c32)c1 [Trametinib]; conditions: max 1 µM
In short: as §1

Paclitaxel = compound: CC(=O)O[C@H]1C(=O)[C@@]2(C)[C@H]([C@H](OC(=O)c3ccccc3)[C@]3(O)C[C@H](OC(=O)[C@H](O)[C@@H](NC(=O)c4ccccc4)c4ccccc4)C(C)=C1C3(C)C)[C@]1(OC(C)=O)CO[C@@H]1C[C@@H]2O [Paclitaxel]; conditions: max 3 µM
In short: as §1

Palbociclib = compound: CC(=O)c1c(C)c2cnc(Nc3ccc(N4CCNCC4)cn3)nc2n(C2CCCC2)c1=O [Palbociclib]; conditions: max 10 µM
In short: as §1

AZD1390 = compound: CC(C)n1c(=O)n(C)c2cnc3cc(F)c(-c4ccc(OCCCN5CCCCC5)nc4)cc3c21 [AZD1390]; conditions: max 0.3 µM
In short: as §1

Venetoclax = compound: CC1(C)CCC(CN2CCN(c3ccc(C(=O)NS(=O)(=O)c4ccc(NCC5CCOCC5)c([N+](=O)[O-])c4)c(Oc4cnc5[nH]ccc5c4)c3)CC2)=C(c2ccc(Cl)cc2)C1 [Venetoclax]; conditions: max 1 µM
In short: as §1

Dasatinib = compound: CC1=C(C(=CC=C1)Cl)NC(=O)C2=CN=C(S2)NC3=CC(=NC(=N3)C)N4CCN(CC4)CCO [Dasatinib]; conditions: max 2 µM
In short: as §1

SG3199 = compound: CC1=CN2[C@@H](C1)C=NC3=CC(=C(C=C3C2=O)OC)OCCCCCOC4=C(C=C5C(=C4)N=C[C@@H]6CC(=CN6C5=O)C)OC [SG3199]; conditions: max 0.001 µM
In short: as §1

AZD2811 = compound: CCN(CCO)CCCOc1ccc2c(Nc3cc(CC(=O)Nc4cccc(F)c4)[nH]n3)ncnc2c1 [AZD2811]; conditions: max 1 µM
In short: as §1

SN-38 = compound: CCc1c2c(nc3ccc(O)cc13)-c1cc3c(c(=O)n1C2)COC(=O)[C@]3(O)CC [SN-38]; conditions: max 0.3 µM
In short: as §1

AZD0156 = compound: CN(C)CCCOc1ccc(-c2ccc3ncc4c(c3c2)n(C2CCOCC2)c(=O)n4C)cn1 [AZD0156]; conditions: max 3 µM
In short: as §1

AZD4320 = compound: CN(CC[C@H](CSC1=CC=CC=C1)NC2=C(C=C(C=C2)S(=O)(=O)NC(=O)C3=CC=C(C=C3)N4CCC(CC4)[C@H](C5=CC=CC=C5C6=CC=C(C=C6)Cl)O)S(=O)(=O)C(F)(F)F)CCO [AZD4320]; conditions: max 1 µM
In short: as §1

Alisertib = compound: COc1cc(Nc2ncc3c(n2)-c2ccc(Cl)cc2C(c2c(F)cccc2OC)=NC3)ccc1C(=O)O [Alisertib]; conditions: max 10 µM
In short: as §1

Etoposide = compound: COc1cc([C@@H]2c3cc4c(cc3[C@@H](O[C@@H]3O[C@@H]5CO[C@@H](C)O[C@H]5[C@H](O)[C@H]3O)[C@H]3COC(=O)[C@H]23)OCO4)cc(OC)c1O [Etoposide]; conditions: max 10 µM
In short: as §1

Gefitinib = compound: COc1cc2ncnc(Nc3ccc(F)c(Cl)c3)c2cc1OCCCN1CCOCC1 [Gefitinib]; conditions: max 10 µM
In short: as §1

Prexasertib = compound: COc1cccc(OCCCN)c1-c1cc(Nc2cnc(C#N)cn2)n[nH]1 [Prexasertib]; conditions: max 1 µM
In short: as §1

Doxorubicin = compound: COc1cccc2c1C(=O)c1c(O)c3c(c(O)c1C2=O)C[C@@](O)(C(=O)CO)C[C@@H]3O[C@H]1C[C@H](N)[C@H](O)[C@H](C)O1 [Doxorubicin]; conditions: max 1 µM
In short: as §1

AZD5153 = compound: COc1nnc2ccc(N3CCC(c4ccc(OCCN5CCN(C)C(=O)[C@H]5C)cc4)CC3)nn12 [AZD5153]; conditions: max 1 µM
In short: as §1

Lapatinib = compound: CS(=O)(=O)CCNCc1ccc(-c2ccc3ncnc(Nc4ccc(OCc5cccc(F)c5)c(Cl)c4)c3c2)o1 [Lapatinib]; conditions: max 10 µM
In short: as §1

AZD8186 = compound: C[C@@H](Nc1cc(F)cc(F)c1)c1cc(C(=O)N(C)C)cc2c(=O)cc(N3CCOCC3)oc12 [AZD8186]; conditions: max 10 µM
In short: as §1

Crizotinib = compound: C[C@@H](Oc1cc(-c2cnn(C3CCNCC3)c2)cnc1N)c1c(Cl)ccc(F)c1Cl [Crizotinib]; conditions: max 10 µM
In short: as §1

Savolitinib = compound: C[C@@H](c1ccc2nccn2c1)n1nnc2ncc(-c3cnn(C)c3)nc21 [Savolitinib]; conditions: max 1 µM
In short: as §1

AZD6738 = compound: C[C@@H]1COCCN1C2=NC(=NC(=C2)C3(CC3)[S@](=N)(=O)C)C4=C5C=CNC5=NC=C4 [AZD6738]; conditions: max 10 µM
In short: as §1

AZD5991 = compound: Cc1c2c(nn1C)CSCc1cc(n(C)n1)CSc1cc(c3ccccc3c1)OCCCc1c(C(=O)O)n(C)c3c-2c(Cl)ccc13 [AZD5991]; conditions: max 1 µM
In short: as §1

AZD7648 = compound: Cc1cc2ncnn2cc1Nc1ncc2c(n1)n(C1CCOCC1)c(=O)n2C [AZD7648]; conditions: max 10 µM
In short: as §1

Taselisib = compound: Cc1nc(-c2cn3c(n2)-c2ccc(-c4cnn(C(C)(C)C(N)=O)c4)cc2OCC3)n(C(C)C)n1 [Taselisib]; conditions: max 10 µM
In short: as §1

Selumetinib = compound: Cn1cnc2c(F)c(Nc3ccc(Br)cc3Cl)c(C(=O)NOCCO)cc21 [Selumetinib]; conditions: max 10 µM
In short: as §1

SRA737 = compound: N#Cc1cnc(Nc2cc(NC[C@H]3CNCCO3)c(C(F)(F)F)cn2)cn1 [SRA737]; conditions: max 10 µM
In short: as §1

MK-2206 = compound: NC1(c2ccc(-c3nc4ccn5c(=O)[nH]nc5c4cc3-c3ccccc3)cc2)CCC1 [MK-2206]; conditions: max 10 µM
In short: as §1

Gemcitabine = compound: Nc1ccn([C@@H]2O[C@H](CO)[C@@H](O)C2(F)F)c(=O)n1 [Gemcitabine]; conditions: max 0.3 µM
In short: as §1

[1] = compound: O=C(Nc1ccc2[nH]nc(-c3ccncc3)c2c1)[C@@H]1CCN(CC(=O)N2CCN(c3ccc(-c4ncccn4)cc3)CC2)C1; conditions: max 5 µM
In short: as §1

Olaparib = compound: O=C(c1cc(Cc2n[nH]c(=O)c3ccccc23)ccc1F)N1CCN(C(=O)C2CC2)CC1 [Olaparib]; conditions: max 10 µM
In short: as §1

5-Fluorouracil = compound: O=c1[nH]cc(F)c(=O)[nH]1 [5-Fluorouracil]; conditions: max 20 µM
In short: as §1

CAL-62 (Thyroid Gland Carcinoma)
IC50, cell viability 72 h (Carboplatin): > 10000 nM | IC50, cell viability 72 h (AZD5363): > 10000 nM | IC50, cell viability 72 h (AZD1775): 1320 nM | IC50, cell viability 72 h (Trametinib): 551 nM | IC50, cell viability 72 h (Paclitaxel): 7.33 nM | IC50, cell viability 72 h (Palbociclib): > 10000 nM | IC50, cell viability 72 h (AZD1390): > 300 nM | IC50, cell viability 72 h (Venetoclax): > 1000 nM | IC50, cell viability 72 h (Dasatinib): 784 nM | IC50, cell viability 72 h (SG3199): > 1 nM | IC50, cell viability 72 h (AZD2811): > 1000 nM | IC50, cell viability 72 h (SN-38): 4.59 nM | IC50, cell viability 72 h (AZD0156): > 3000 nM | IC50, cell viability 72 h (AZD4320): > 1000 nM | IC50, cell viability 72 h (Alisertib): > 10000 nM | IC50, cell viability 72 h (Etoposide): 3420 nM | IC50, cell viability 72 h (Gefitinib): > 10000 nM | IC50, cell viability 72 h (Prexasertib): 158 nM | IC50, cell viability 72 h (Doxorubicin): 372 nM | IC50, cell viability 72 h (AZD5153): 127 nM | IC50, cell viability 72 h (Lapatinib): > 10000 nM | IC50, cell viability 72 h (AZD8186): > 10000 nM | IC50, cell viability 72 h (Crizotinib): > 10000 nM | IC50, cell viability 72 h (Savolitinib): > 1000 nM | IC50, cell viability 72 h (AZD6738): 5210 nM | IC50, cell viability 72 h (AZD5991): > 1000 nM | IC50, cell viability 72 h (AZD7648): > 10000 nM | IC50, cell viability 72 h (Taselisib): > 10000 nM | IC50, cell viability 72 h (Selumetinib): > 10000 nM | IC50, cell viability 72 h (SRA737): > 10000 nM | IC50, cell viability 72 h (MK-2206): > 10000 nM | IC50, cell viability 72 h (Gemcitabine): 35.5 nM | IC50, cell viability 72 h [1]: 4090 nM | IC50, cell viability 72 h (Olaparib): > 10000 nM | IC50, cell viability 72 h (5-Fluorouracil): > 20000 nM

COLO-680N (Esophageal Squamous Cell Carcinoma)
IC50, cell viability 72 h (Carboplatin): > 10000 nM | IC50, cell viability 72 h (AZD5363): > 10000 nM | IC50, cell viability 72 h (AZD1775): > 3000 nM | IC50, cell viability 72 h (Trametinib): > 1000 nM | IC50, cell viability 72 h (Paclitaxel): 1300 nM | IC50, cell viability 72 h (Palbociclib): > 10000 nM | IC50, cell viability 72 h (AZD1390): > 300 nM | IC50, cell viability 72 h (Venetoclax): > 1000 nM | IC50, cell viability 72 h (Dasatinib): > 2000 nM | IC50, cell viability 72 h (SG3199): > 1 nM | IC50, cell viability 72 h (AZD2811): > 1000 nM | IC50, cell viability 72 h (SN-38): > 300 nM | IC50, cell viability 72 h (AZD0156): > 3000 nM | IC50, cell viability 72 h (AZD4320): > 1000 nM | IC50, cell viability 72 h (Alisertib): > 10000 nM | IC50, cell viability 72 h (Etoposide): > 10000 nM | IC50, cell viability 72 h (Gefitinib): > 10000 nM | IC50, cell viability 72 h (Prexasertib): > 1000 nM | IC50, cell viability 72 h (Doxorubicin): > 1000 nM | IC50, cell viability 72 h (AZD5153): > 1000 nM | IC50, cell viability 72 h (Lapatinib): > 10000 nM | IC50, cell viability 72 h (AZD8186): > 10000 nM | IC50, cell viability 72 h (Crizotinib): > 10000 nM | IC50, cell viability 72 h (Savolitinib): > 1000 nM | IC50, cell viability 72 h (AZD6738): > 10000 nM | IC50, cell viability 72 h (AZD5991): > 1000 nM | IC50, cell viability 72 h (AZD7648): > 10000 nM | IC50, cell viability 72 h (Taselisib): > 10000 nM | IC50, cell viability 72 h (Selumetinib): > 10000 nM | IC50, cell viability 72 h (SRA737): > 10000 nM | IC50, cell viability 72 h (MK-2206): > 10000 nM | IC50, cell viability 72 h (Gemcitabine): > 300 nM | IC50, cell viability 72 h [1]: > 5000 nM | IC50, cell viability 72 h (Olaparib): > 10000 nM | IC50, cell viability 72 h (5-Fluorouracil): > 20000 nM
